# Patent EP0051819A2, “Tetra-substituted benzene derivatives, their preparation and pharmaceutical preparations containing them” (F. HOFFMANN-LA ROCHE & CO. Aktiengesellschaft, priority 1980, dated 1982)
# Where two headings read alike, the source gives them in different places.
# Tests used:
# Format in all cases: cell-based
# Rhinovirus HGP = assay: Antiviral activity: inhibition of viral cytopathogenic effect (C.P.E.) in HeLa cell culture; settings: for IC50: Enterovirus, HeLa, 48 h; for antivirale Aktivität: qualitative statement in the description, no virus named
# Protocol: (§1) Eine Suspension von HeLa-Zellen (6 x 10^4) wurde mit Rhinovirus HGP (3 x 10^3 Plaque-bildende Einheiten, PFU) gemischt und auf eine Mikrotestplatte gebracht, die die zu testenden Verbindungen in zunehmender Verdünnung enthielten. Die Zellen wurden dann in Eagle's Minimalnährlösung, die 2% Kalbsserum, 1% Tryptosephosphatbrühe, 100 ug/ml Streptomycin und 20 Einheiten/ml Penicillin G enthielt, kultiviert. Der virale zytopathogenische Effekt (C.P.E.) und die Cytotoxizität wurden mikroskopisch nach 2 Tagen Kultivierung bei 33°C beobachtet. Die antivirale Aktivität (IC50) der Testverbindungen ist diejenige Konzentration,.bei der C.P.E. um 50% gegenüber der Kontrollkultur gehemmt war. Die Cytotoxizität ist als Minimalkonzentration angegeben, bei der toxische Symptome beobachtet wurden.(cytotoxische Dosis).
# Rhinovirus 1B = assay: Antiviral spectrum against rhinovirus serotypes (C.P.E. inhibition); settings: Enterovirus; virus strain Rhinovirus 1B
# Protocol: as §1
# (§2) Weiterhin sind die antiviralen Spektren von 1-(4-Ethoxy-2-hydroxy-6-methoxyphenyl)-3-(4-methoxyphenyl)-1-propanon (Verbindung A) und 4-Ethoxy-2-hydroxy-6-methoxy-N-(p-methoxybenzyl)benzamid (Verbindung B) gegen verschiedene Serotypen von Rhinoviren in Tabelle 2. angegeben.
# Rhinovirus 25 = assay: as above; settings: Enterovirus; virus strain Rhinovirus 25
# Protocol: as §1, §2
# Rhinovirus 39 = assay: as above; settings: Enterovirus; virus strain Rhinovirus 39
# Protocol: as §1, §2
# Rhinovirus 2 = assay: as above; settings: Enterovirus; virus strain Rhinovirus 2
# Protocol: as §1, §2
# Rhinovirus 1A = assay: as above; settings: Enterovirus; virus strain Rhinovirus 1A
# Protocol: as §1, §2
# Rhinovirus 46 = assay: as above; settings: Enterovirus; virus strain Rhinovirus 46
# Protocol: as §1, §2
# Rhinovirus 31 = assay: as above; settings: Enterovirus; virus strain Rhinovirus 31
# Protocol: as §1, §2
# Rhinovirus 21 = assay: as above; settings: Enterovirus; virus strain Rhinovirus 21
# Protocol: as §1, §2
# Rhinovirus 23 = assay: as above; settings: Enterovirus; virus strain Rhinovirus 23
# Protocol: as §1, §2
# Rhinovirus 50 = assay: as above; settings: Enterovirus; virus strain Rhinovirus 50
# Protocol: as §1, §2
# Rhinovirus 14 = assay: as above; settings: Enterovirus; virus strain Rhinovirus 14
# Protocol: as §1, §2
# Rhinovirus 9 = assay: as above; settings: Enterovirus; virus strain Rhinovirus 9
# Protocol: as §1, §2
# Rhinovirus 24 = assay: as above; settings: Enterovirus; virus strain Rhinovirus 24
# Protocol: as §1, §2
# [1] = Cytotoxicity in HeLa cells, observed microscopically in the antiviral test; settings: human, hela cells; minimal concentration at which toxic symptoms were observed (cytotoxische Dosis); 2 days at 33°C; read-out: Cytotoxizität
# Protocol: as §1
# [2] = Cytotoxic dose inhibiting HeLa cell growth; settings: human, hela cells; footnote of Tabelle 2; read-out: cytotoxischen Dosen, die HeLa-Zellwachstum hemmen
# Rhinovirus 32 = assay: Antiviral spectrum against rhinovirus serotypes (C.P.E. inhibition); settings: Enterovirus; virus strain Rhinovirus 32
# Protocol: as §1, §2
# Rhinovirus 55 = assay: as above; settings: Enterovirus; virus strain Rhinovirus 55
# Protocol: as §1, §2
# Rhinovirus 44 = assay: as above; settings: Enterovirus; virus strain Rhinovirus 44
# Protocol: as §1, §2
# Rhinovirus 36 = assay: as above; settings: Enterovirus; virus strain Rhinovirus 36
# Protocol: as §1, §2
# Rhinovirus 16 = assay: as above; settings: Enterovirus; virus strain Rhinovirus 16
# Protocol: as §1, §2
# Rhinovirus 30 = assay: as above; settings: Enterovirus; virus strain Rhinovirus 30
# Protocol: as §1, §2
# Rhinovirus 47 = assay: as above; settings: Enterovirus; virus strain Rhinovirus 47
# Protocol: as §1, §2
# HeLa-Zellen = assay: Cytotoxicity in HeLa cells, observed microscopically in the antiviral test; settings: minimal concentration at which toxic symptoms were observed (cytotoxische Dosis); 2 days at 33°C
# Protocol: as §1
# [3] = concentration inhibiting C.P.E. by 50% versus control culture, HeLa cells, 2 days at 33°C, read-out: IC50
smiles,measurement,setting,value
CCOc1cc(O)c(C(=O)CCc2ccc(OC)cc2)c(OC)c1 [1-(4-Ethoxy-2-hydroxy-6-methoxyphenyl)-3-(4-methoxyphenyl)-1-propanon],IC50,Rhinovirus HGP; [3],0.002 µg/mL
same,antivirale Aktivität,Rhinovirus HGP,besonders starke antivirale Aktivität
same,IC50,Rhinovirus 1B,0.03 to 0.09 µg/mL
same,IC50,Rhinovirus 25,0.01 to 0.09 µg/mL
same,IC50,Rhinovirus 39,0.012 to 0.037 µg/mL
same,IC50,Rhinovirus 2,0.001 µg/mL
same,IC50,Rhinovirus 1A,0.03 to 0.09 µg/mL
same,IC50,Rhinovirus 46,0.037 to 0.11 µg/mL
same,IC50,Rhinovirus 31,0.03 to 0.09 µg/mL
same,IC50,Rhinovirus 21,< 0.001 µg/mL
same,IC50,Rhinovirus 23,0.004 µg/mL
same,IC50,Rhinovirus 50,0.004 to 0.012 µg/mL
same,IC50,Rhinovirus 14,0.1 to 0.3 µg/mL
same,IC50,Rhinovirus 9,0.012 to 0.037 µg/mL
same,IC50,Rhinovirus 24,0.01 to 0.03 µg/mL
same,MCC at 48 h,[1],> 8 µg/mL
same,MCC,[2],60 µg/mL
CCOc1cc(O)c(C(=O)NCc2ccc(OC)cc2)c(OC)c1 [4-Ethoxy-2-hydroxy-6-methoxy-N-(p-methoxybenzyl)benzamid],IC50,Rhinovirus HGP; [3],0.002 µg/mL
same,antivirale Aktivität,Rhinovirus HGP,besonders starke antivirale Aktivität
same,IC50,Rhinovirus 1B,0.003 to 0.009 µg/mL
same,IC50,Rhinovirus 32,0.003 to 0.009 µg/mL
same,IC50,Rhinovirus 39,0.003 µg/mL
same,IC50,Rhinovirus 2,0.001 µg/mL
same,IC50,Rhinovirus 55,0.009 µg/mL
same,IC50,Rhinovirus 44,0.003 µg/mL
same,IC50,Rhinovirus 36,0.009 to 0.027 µg/mL
same,IC50,Rhinovirus 1A,0.009 to 0.027 µg/mL
same,IC50,Rhinovirus 31,0.081 to 0.24 µg/mL
same,IC50,Rhinovirus 16,0.003 µg/mL
same,IC50,Rhinovirus 30,0.001 to 0.003 µg/mL
same,IC50,Rhinovirus 21,< 0.001 µg/mL
same,IC50,Rhinovirus 50,0.01 µg/mL
same,IC50,Rhinovirus 14,0.009 to 0.027 µg/mL
same,IC50,Rhinovirus 47,0.003 µg/mL
same,IC50,Rhinovirus 9,0.003 µg/mL
same,MCC at 48 h,[1],> 10 µg/mL
same,MCC,[2],40 µg/mL
CCOC(=O)Oc1cc(OCC)cc(OC)c1C(=O)CCc1ccc(OC)cc1 [5-Ethoxy-3-methoxy-2-[3-(4-methoxyphenyl)propionyl]-phenyl-ethylcarbonat],IC50,Rhinovirus HGP; [3],0.002 µg/mL
same,antivirale Aktivität,Rhinovirus HGP,besonders starke antivirale Aktivität
same,MCC at 48 h,[1],8 µg/mL
CCOc1cc(OC)c(C(=O)CCc2ccc(OC)cc2)c(OC(=O)c2ccccc2)c1 [5-Ethoxy-3-methoxy-2-[3-(4-methoxyphenyl)propionyl]phenyl-benzoat],IC50,Rhinovirus HGP; [3],0.01 µg/mL
same,MCC at 48 h,[1],> 8 µg/mL
CCCCCCCCCCCCCCCCCC(=O)Oc1cc(OCC)cc(OC)c1C(=O)CCc1ccc(OC)cc1 [5-Ethoxy-3-methoxy-2-[3-(4-methoxyphenyl)propionyl]phenyl-octadecanoat],IC50,Rhinovirus HGP; [3],0.9 µg/mL
same,MCC at 48 h,[1],> 8 µg/mL
CCOc1cc(OC)c(C(=O)CCc2ccc(OC)cc2)c(O[C@@H]2O[C@H](CO)[C@@H](O)[C@H](O)[C@H]2O)c1 [5-Ethoxy-3-methoxy-2-[3-(4-methoxyphenyl)propionyl]phenyl-ß-D-glucopyranosid],IC50,Rhinovirus HGP; [3],2.7 µg/mL
same,MCC at 48 h,[1],> 10 µg/mL
CCOc1cc(OC)c(C(=O)CCc2ccc(OC)cc2)c(OP(=O)(O)O)c1 [5-Ethoxy-3-methoxy-2-[3-(4-methoxyphenyl)propionyl]phenyldihydrogenphosphat],IC50,Rhinovirus HGP,0.3 to 0.8 µg/mL
same,MCC at 48 h,[1],> 10 µg/mL
CCOc1cc(OC)c(C(=O)NCc2ccc(OC)cc2)c(OP(=O)([O-])[O-])c1.[Na+].[Na+] [Dinatrium 2-[(p-Anisylamino)carbonyl]-5-ethoxy-3-methoxyphenyl-phosphat],IC50,Rhinovirus HGP,0.01 to 0.03 µg/mL
same,antivirale Aktivität,Rhinovirus HGP,besonders starke antivirale Aktivität
same,Cytotoxizität,HeLa-Zellen,>8 µg/mL
CCCOc1cc(OC)c(C(=O)NCc2ccc(OC)cc2)c(OP(=O)([O-])[O-])c1.[Na+].[Na+] [Dinatrium 2-[(p-anisylamino)carbonyl]-3-methoxy-5-propoxyphenylphosphat],IC50,Rhinovirus HGP,0.01 to 0.02 µg/mL
same,antivirale Aktivität,Rhinovirus HGP,besonders starke antivirale Aktivität
same,MCC at 48 h,[1],> 200 µg/mL
CCOc1cc(OC)c(C(=O)CCc2ccc(OC)cc2)c(OP(=O)([O-])[O-])c1.[Na+].[Na+] [Dinatrium 5-ethoxy-3-methoxy-2-[3-(4-methoxyphenyl)-propionyl]phenylphosphat],IC50,Rhinovirus HGP,0.03 to 0.1 µg/mL
same,Cytotoxizität,HeLa-Zellen,>10 µg/mL
"CCCCOc1ccc(CNC(=O)c2c(O)cc(OC)cc2OC)cc1 [N-(p-Butoxybenzyl)-2-hydroxy--4,6-dimethoxybenzamid]",IC50,Rhinovirus HGP; [3],0.3 µg/mL
same,MCC at 48 h,[1],8 µg/mL
"COc1cc(O)c(C(=O)NCc2ccc(Cl)cc2)c(OC)c1 [N-(p-Chlorobenzyl)-2-hydroxy--4,6-dimethoxybenzamid]",IC50,Rhinovirus HGP; [3],0.01 to 0.03 µg/mL
same,MCC at 48 h,[1],> 2.4 µg/mL
"COc1cc(O)c(C(=O)NCc2ccccc2)c(OC)c1 [N-Benzyl-2-hydroxy-4,6-dimethoxy-benzamid]",IC50,Rhinovirus HGP; [3],0.03 to 0.1 µg/mL
same,MCC at 48 h,[1],> 8 µg/mL
"COc1cc(O)c(C(=O)NCc2ccco2)c(OC)c1 [N-Furfuryl-2-hydroxy-4,6--dimethoxybenzamid]",IC50,Rhinovirus HGP; [3],0.03 to 0.1 µg/mL
same,MCC at 48 h,[1],> 8 µg/mL
"C=CCOc1ccc(CNC(=O)c2c(O)cc(OC)cc2OC)cc1 [N-[p-(Allyloxy)benzyl]-2-hydroxy-4,6-dimethoxybenzamid]",IC50,Rhinovirus HGP; [3],0.01 µg/mL
same,MCC at 48 h,[1],8 µg/mL
"COc1cc(O)c(C(=O)NCc2ccc(OCc3ccccc3)cc2)c(OC)c1 [N-[p-(Benzyloxy)benzyl]-2--hydroxy-4,6-dimethoxybenzamid]",IC50,Rhinovirus HGP; [3],0.3 to 0.9 µg/mL
same,MCC at 48 h,[1],> 8 µg/mL
"COc1cc(O)c(C(=O)NCc2ccc(N(C)C)cc2)c(OC)c1 [N-[p-(Dimethylamino)benzyl]-2--hydroxy-4,6-dimethoxybenzamid]",IC50,Rhinovirus HGP; [3],0.01 µg/mL
same,MCC at 48 h,[1],> 8 µg/mL
